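Grown in 96-well plates, cells were treated for 48 hours with each compound at five concentrations. Insufficient inhibition: endpoint recorded as highest concentration tested. GI50 marks 50% less growth. TGI is the concentration that stops growth completely.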
Legend:
Assay in all cases: NCI tumour cell line growth inhibition, 48 h
[1] = system: HOP-18 NSCLC
[2] = system: P388 leukemia
[3] = system: P388/ADR leukemia
[4] = system: SN12K1 renal
[5] = system: T-47D breast
[6] = system: MDA-N
[7] = system: 786-0 renal
[8] = system: LXFL 529 NSCLC

## S=P1(N2CCCCC2)Oc2ccc3ccccc3c2-c2c(ccc3ccccc23)O1
[1]
  TGI: > 100 µM
[2]
  TGI: > 100 µM
[3]
  TGI: > 100 µM
[4]
  TGI: > 100 µM

## N=C(N)c1ccc(-c2ccc(-c3ccccc3)s2)cc1
[5]
  GI50: 1.83 µM
  TGI: 4.79 µM

## COc1cc(/C=C/c2cc(/C=C/c3ccc(O)c(OC)c3)nc(N)n2)ccc1O
[5]
  GI50: 2.83 µM
  TGI: 9.55 µM

## C=C1C(=O)C[C@@]23CCC[C@@]12CC(OCOC)C3 (stereo partly drawn)
[1]
  TGI: 11.5 µM
[2]
  TGI: 1.92 µM
[3]
  TGI: 2.09 µM
[4]
  TGI: 4.13 µM

## Nc1nc(Cl)cc(OCC2(CO)CC(OCc3ccccc3)C2)n1 (stereo not drawn)
[6]
  GI50: 64.4 µM
[5]
  GI50: 18.9 µM
  TGI: 92.3 µM

## O=[N+]([O-])c1ccccc1NC1c2ccccc2Oc2ccccc21
[5]
  GI50: 27.8 µM
  TGI: > 100 µM

## COC(=O)c1cccc(N[C@@H]2c3cc4c(cc3C(c3cc(OC)c(O)c(OC)c3)[C@H]3C(=O)OCC32)OCO4)c1 (stereo partly drawn)
[1]
  TGI: 21.6 µM
[2]
  TGI: 0.826 µM
[3]
  TGI: 1.58 µM
[4]
  TGI: 9.75 µM

## Cc1cc(C)c2c(c1)CC1(Cc3c(C)ccc(C)c3C1=O)C2=O (stereo not drawn)
[6]
  TGI: > 100 µM
[5]
  TGI: > 100 µM

## Cc1ccc([N+](=O)[O-])cc1S(=O)(=O)Nc1ccc(C2=NNC(c3ccccc3O)C2)cc1 (stereo not drawn)
[6]
  TGI: 93.5 µM
[5]
  TGI: 72.4 µM

## CCCCCCCC/C=C\CCCCCCCC(=O)O
[2]
  TGI: 274 µM
[3]
  TGI: 200 µM
[4]
  TGI: 175 µM

## CCN(CC)CCCNc1ncc(C)c2[nH]c3ccncc3c12
[2]
  TGI: 15.3 µM
[3]
  TGI: > 100 µM
[4]
  TGI: 19.9 µM

## O=C(O)CNc1ccc(C(=O)O)cc1
[7]
  TGI: > 100 µM
[6]
  TGI: > 100 µM
[5]
  TGI: > 100 µM

## O=C(O)CS
[7]
  TGI: > 100 µM
[8]
  TGI: > 100 µM

## CCNc1nnc(-c2nsc3ccccc23)s1
[1]
  TGI: 91.6 µM
[8]
  TGI: > 100 µM
